Experimental data: BindingDB's records for doi:10.1016/j.bioorg.2017.03.006 (CSIR-Indian Institute of Chemical Biology, 2017)

Biological target: Alpha-glucosidase MAL32 (Saccharomyces cerevisiae (strain ATCC 204508 / S288c), UniProt P38158)
Assay: α-Glucosidase Inhibition Assay
Details: pH 6.8; 37 °C
Protocol: Briefly, the sample solution (25 μL, 1.0 mM solution in DMSO) was mixed with enzyme solution (25 μL, 0.5 U/mL prepared in 0.1 M phosphate buffer, pH 6.8). […] After the incubation, the substrate p-nitrophenyl α-D-glucopyranoside (25 μL, 0.5 mM, 0.1 Mphosphate buffer, pH 6.8) was added to the mixture and allowed to incubate at 37 ± 1 °C for 30 min. The reaction was then terminated by the addition of aqueous solution of sodium carbonate (100 μL, 0.2 M). […] The uninhibited enzyme solution was taken as blank and an appropriate DMSO control was used. […] The concentration of DMSO in the final solution was maintained below 5.0% so that the enzyme activity was not destroyed.

Sequence of Alpha-glucosidase MAL32 (P38158 whole entry): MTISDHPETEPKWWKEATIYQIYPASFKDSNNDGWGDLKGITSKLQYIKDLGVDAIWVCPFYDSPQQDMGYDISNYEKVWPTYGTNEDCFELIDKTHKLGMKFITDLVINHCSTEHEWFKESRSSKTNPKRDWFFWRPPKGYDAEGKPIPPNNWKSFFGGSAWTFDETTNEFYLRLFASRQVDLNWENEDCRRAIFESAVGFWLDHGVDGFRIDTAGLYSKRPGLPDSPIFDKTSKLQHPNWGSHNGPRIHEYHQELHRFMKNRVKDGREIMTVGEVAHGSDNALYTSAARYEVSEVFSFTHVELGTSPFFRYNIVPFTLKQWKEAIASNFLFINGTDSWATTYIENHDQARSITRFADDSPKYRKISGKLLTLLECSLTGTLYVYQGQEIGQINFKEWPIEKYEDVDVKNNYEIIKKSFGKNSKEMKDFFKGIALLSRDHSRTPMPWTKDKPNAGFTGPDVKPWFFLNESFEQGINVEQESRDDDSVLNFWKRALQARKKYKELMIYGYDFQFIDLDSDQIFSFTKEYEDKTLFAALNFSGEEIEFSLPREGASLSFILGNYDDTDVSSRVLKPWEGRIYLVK

O=C(CCc1cn(-c2ccc(O)cc2)nn1)N[C@@H]1OC(CO)[C@@H](O)C(O)C1O (stereo partly drawn) [3-[1-(4-Hydroxyphenyl)-1H-[1,2,3]triazol-4-yl]-N-(2,3,4,6-tetra-O-acetyl-β-D-glucopyranosyl)propanamide (4f)]
IC50: 148 µM
